Read-outs that look alike come from different tables or passages of the source.
Columns and labels:
[1] = system: Bacillus subtilis; parameters: method as in earlier work; settings: cited from earlier work
[2] = system: NO production in LPS + IFN-γ activated RAW 264.7 macrophages; assay: Inhibition of LPS + IFN-γ induced nitric oxide production (Griess assay); type: cell-based; settings: for IC50: Mus musculus, read-out: NO Inhibition (IC50 in μM) (n = 8); for anti-inflammatory activity (in words): NO and TNF-α
Method: (§1) RAW 264.7 macrophages were grown in 175 cm^2 flasks on DMEM containing 5% foetal bovine serum (FBS) that was supplemented with penicillin (100 μg/mL), streptomycin (100 μg/mL) and L-glutamine (2 mM). The cell line was maintained in 5% CO2 at 37 °C, with media being replaced every 3–4 days. Once cells had grown to confluence in the culture flask, they were removed using a rubber policeman, as opposed to using trypsin, which can remove membrane-bound receptors. The cell suspension was concentrated by centrifugation for 3 min at 900 rpm and re-suspended in a small volume of fresh DMEM (with 1% antibiotics and 5% FBS); cell densities were estimated using a Neubauer counting chamber. The cell concentration was adjusted with DMEM (with 1% antibiotics and 5% FBS) to obtain 60,000 cells/100 μL cell suspension. An aliquot of 100 μL of this cell suspension was dispensed into the wells of 96-well plates. Plates were incubated at 37 °C, 5% CO2 for 18 h before the activation experiments were carried out.
(§2) For assays, 90 μL of each concentration of compounds (8 concentrations made by serial dilution from 0 µg/mL to 36 µg/mL compound in DMEM) were added an hour prior to addition of 10 µL of activator. A combination of 10 μg·mL^−1 LPS and 10 U·mL^−1 (1 unit = 0.1 ng/mL) IFN-γ, were used for activation. After activation, the cells were incubated for 24 h at 37 °C and then NO, TNF-α and cell viability was determined. Unactivated cells (exposed to media alone) were used as negative control and activated cells as positive control.
Nitric oxide was determined by Griess reagent quantification of nitrite. Griess reagent was freshly made up of equal volumes of 1% sulfanilamide and 0.1% napthyethylene-diamine in 5% HCl. From each well, 50 µL of supernatant was transferred to a fresh 96-well plate and mixed with 50 µL of Griess reagent and measured at 540 nm in a POLARstar Omega microplate reader (BMG Labtech, Mornington, Australia). The concentration of nitrite was calculated using a standard curve with […] (0–500 μM), and linear regression analysis.
(§3) Data calculations were performed using MS-Excel 2010 software. IC50 values were obtained by using the sigmoidal dose–response function in GraphPad Prism. The results were expressed as mean ± standard deviation (SD).

[3] = system: TNF-α production in LPS + IFN-γ activated RAW 264.7 macrophages; assay: Inhibition of LPS + IFN-γ induced TNF-α production (ELISA); type: cell-based; settings: for IC50: Mus musculus, read-out: TNF-α Inhibition (IC50 in µM) (n = 3)
Method: as §1, §2
The diluted supernatants were used for determination of TNF-α using a commercial sandwich ELISA (Peprotech) according to the manufacturer’s protocol. In brief, the capture antibody was used at a concentration of 1.5 μg·mL^−1 in PBS (1.9 mM NaH2PO4, 8.1 mM Na2HPO4, 154 mM NaCl) (pH 7.4). Serial dilutions of TNF-α standard from 0 to 10,000 pg·mL^−1 in diluent (0.05% Tween-20, 0.1% BSA in PBS) were used as internal standard. TNF-α was detected with a biotinylated second antibody and an Avidin peroxidase conjugate with TMB as detection reagent. The colour development was monitored at 655 nm, taking readings every 5 min. After approximately 30 min the reaction was stopped using 0.5 M sulphuric acid and the absorbance was measured at 450 nm using a POLARstar Omega microplate reader (BMG Labtech, Mornington, Australia), expressed as a percentage in control cells after conversion of the concentrations, using a standard curve constructed with defined concentrations of TNF-α. Curve fitting of this standard curve and extrapolation of experimental data were performed using non-linear regression analysis.
as §3

[4] = Cell viability by the Alamar Blue assay (cytotoxicity); type: cell-based; settings: mouse, RAW 264.7, 24 h, mean ± SD, read-out: Cytotoxicity (LC50 in μM) (n = 8)
Method: as §1, §2
One hundred microlitres of Alamar Blue solution (10% Alamar Blue (Resazurin) in DMEM media) was added to each well, incubated at 37 °C for 2 h. After incubation, fluorescence intensity was measured with the microplate reader (excitation at 530 nm and emission at 590 nm) and results were expressed as a percentage of the intensity of that in control cells, after background fluorescence was subtracted.
as §3

[5] = system: SCC4 OSCC cells; parameters: method as in doi:10.1016/j.jff.2015.07.017; settings: read-out: suppression of proliferation IC50; cited from earlier work
[6] = system: SCC2095 OSCC cells; parameters: method as in doi:10.1016/j.jff.2015.07.017; settings: read-out: suppression of proliferation IC50; cited from earlier work
[7] = system: 12-O-tetradecanoylphorbol 13 acetate (TPA)-induced topical inflammation in mice ears; parameters: method as in PMID 16697209; settings: cited from earlier work
[8] = system: NO production in LPS-stimulated RAW 264.7 cells; parameters: method as in PMID 19557361; settings: cited from earlier work
[9] = RAW264.7, RAW 264.7, LPS + IFN-γ, 24 h, Griess assay, mean ± SD
[10] = RAW264.7, RAW 264.7, LPS + IFN-γ, 24 h, ELISA, mean ± SD
[11] = RAW 264.7 macrophages activated with LPS and IFN-γ

SMILES | IC50 ([2]; RAW264.7, 24 h) [µM] | IC50 ([3]; RAW264.7, 24 h) [µM] | CC50 at 24 h [4] [µM] | IC50 [2, 9] [µM] | IC50 [3, 10] [µM] | CC50 at 24 h [4, 11] [µM] | also measured
C=C(C)C1CCC2(C(=O)O)CCC3(C)C(CCC4C5(C)CC(=O)C(O)C(C)(C)C5CCC43C)C12 (stereo not shown) [2-ketobetulinic acid, reference compound] | – | – | – | – | – | – | antibacterial activity [1]: showed antibacterial activity
C=C(C)[C@@H]1CC[C@]2(C(=O)O)CC[C@]3(C)[C@H](CC[C@@H]4[C@@]5(C)[C@@H](C(=O)O)[C@H](O)C(C)(C)[C@@H]5CC[C@]43C)C12 (stereo partly shown) [Compound 1, emmolic acid] | > 36 | > 36 | > 36 | – | – | – | anti-inflammatory activity (in words) ([2]; RAW 264.7, LPS + IFN-γ): inactive
C=C(C)[C@@H]1CC[C@]2(C(=O)O)CC[C@]3(C)[C@H](CC[C@@H]4[C@@]5(C)C[C@@H](O)[C@H](O)C(C)(C)[C@@H]5CC[C@]43C)[C@@H]12 [Compound 2, alphitolic acid] | 17.6 ± 0.7 | 22.7 ± 1.1 | 18.6 ± 0.8 | – | – | – | IC50 [5]: 12 µM; IC50 [6]: 15 µM; inhibition of TPA-induced topical inflammation [7]: inhibit
C=C(C)[C@@H]1CC[C@]2(C(=O)O)CC[C@]3(C)[C@H](CC[C@@H]4[C@@]5(C)C[C@@H](OC(=O)/C=C/c6ccc(O)cc6)[C@H](O)C(C)(C)[C@@H]5CC[C@]43C)[C@@H]12 [Compound 3, trans-coumaroyl alphitolic acid] | 1.7 ± 0.3 | 10.9 ± 2.3 | 4.8 ± 0.9 | – | – | – | increase in potency of NO inhibition compared with compound 2 ([2]; RAW 264.7, LPS + IFN-γ): ten-fold
C=C(C)[C@@H]1CC[C@]2(C(=O)O)CC[C@]3(C)[C@H](CC[C@@H]4[C@@]5(C)C[C@@H](OC(=O)/C=C\c6ccc(O)cc6)[C@H](O)C(C)(C)[C@@H]5CC[C@]43C)[C@@H]12 [Compound 4, cis-coumaroyl alphitolic acid] | 3.5 ± 0.5 | 5.6 ± 0.4 | 8 ± 0.3 | – | – | – | inhibition of TNF-α (in words) ([3]; RAW 264.7, LPS + IFN-γ): strong inhibition
C=C(C)[C@@H]1CC[C@]2(C(=O)O)CC[C@]3(C)[C@H](CC[C@@H]4[C@@]5(C)CC[C@H](O)C(C)(C)[C@@H]5CC[C@]43C)[C@@H]12 [Compound 5, betulinic acid] | – | – | – | 8.3 ± 1 | 23.5 ± 3.7 | 29.1 ± 4.4 | antibacterial activity [1]: showed antibacterial activity
C=C(C)[C@@H]1CC[C@]2(C(=O)O)CC[C@]3(C)[C@H](CC[C@@H]4[C@@]5(C)[C@@H](C(=O)O)[C@H](OC(C)=O)C(C)(C)[C@@H]5CC[C@]43C)C12 (stereo partly shown) [Compound 6, emmolic acid acetate] | – | – | 13.1 ± 2.5 | 14.7 ± 0.6 | > 36 | – | anti-inflammatory activity (in words) ([2]; RAW 264.7, LPS + IFN-γ): moderate anti-inflammatory activity
O=C(O)Cc1ccccc1Nc1c(Cl)cccc1Cl [Diclofenac, diclofenac sodium, reference compound] | – | – | – | 217 ± 43 | > 333 | > 333 | –
CC(C)Cc1ccc(C(C)C(=O)O)cc1 (stereo not shown) [Ibuprofen, ibuprofen, reference compound] | – | – | – | 1160 ± 133 | 723 ± 261 | > 1500 | –
C=C(C)C1CCC2(C(=O)O)CCC3(C)C(CCC4C5(C)CCC(OC(=O)C=Cc6ccc(O)c(O)c6)C(C)(C)C5CCC43C)C12 (stereo not shown) [betulinic acid 3-O-caffeate] | – | – | – | – | – | – | NO inhibition (in words) [8]: most active compound

Reference: paper PMC6273140, “Anti-Inflammatory Chemical Profiling of the Australian Rainforest Tree Alphitonia petriei (Rhamnaceae)” (Molecules, 2016)
